Test results: ChEMBL document CHEMBL6153037, “Developing dual-responsive quinolinium prodrugs of 8-hydroxyquinoline by harnessing the dual chelating sites” (Eur J Med Chem, 2025)
≈ marks a conversion by molar mass, not a printed value. Calls of active or inactive are those of the source. The calls are words filed in the database; no cut-off is given here.

Assays:
[1] = tested on: MDA-MB-231; experiment: Cytotoxicity against human MDA-MB-231 cells assessed as inhibition of cell viability incubated for 48 hrs by MTT assay; type: functional, cell-based; details: MDA-MB-231, 48 h
[2] = Cytotoxicity against human MCF-10A cells assessed as inhibition of cell viability incubated for 48 hrs by MTT assay; type: toxicity, cell-based
[3] = Selectivity index, ratio of inhibition of DNA synthesis in human MCF-10A cells to inhibition of DNA synthesis in human MDA-MB-231 cells; type: toxicity, cell-based; details: MCF-10A cells and MDA-MB-231 cells
[4] = Lipophilicity, logP of compound; type: physicochemical; details: octanol/water
[5] = Lipophilicity, logD of compound at pH 7.4; type: physicochemical; details: buffer
[6] = Solubility of compound in double distilled H2O; type: physicochemical; details: double distilled water
[7] = Solubility of compound in PBS buffer at pH 7.4; type: physicochemical
[8] = tested on: MDA-MB-231; experiment: Cytotoxicity against human MDA-MB-231 cells incubated for 24 to 48 hrs by MTT assay; type: functional, cell-based; details: time 24-48 hrs
[9] = tested on: MDA-MB-231; experiment: Effect on phlorizin-induced cytotoxicity against human MDA-MB-231 cells incubated for 12 hrs by MTT assay; type: functional, cell-based
[10] = tested on: MDA-MB-231; experiment: Induction of apoptosis in human MDA-MB-231 cells assessed as viable cells incubated for 24 hrs by Annexin V-FITC/PI staining based flow cytometry (reference value: 99.5 %); type: functional
[11] = tested on: MDA-MB-231; experiment: Induction of apoptosis in human MDA-MB-231 cells assessed as early apoptotic cells incubated for 24 hrs by Annexin V-FITC/PI staining based flow cytometry (reference value: 0.22 %); type: functional
[12] = tested on: MDA-MB-231; experiment: Induction of apoptosis in human MDA-MB-231 cells assessed as late apoptotic cells incubated for 24 hrs by Annexin V-FITC/PI staining based flow cytometry (reference value: 0.17 %); type: functional
[13] = tested on: MDA-MB-231; experiment: Induction of apoptosis in human MDA-MB-231 cells assessed as necrotic cells incubated for 24 hrs by Annexin V-FITC/PI staining based flow cytometry (reference value: 0.065 %); type: functional
[14] = Induction of apoptosis in human MCF-10A cells assessed as viable cells incubated for 24 hrs by Annexin V-FITC/PI staining based flow cytometry (reference value: 96.0 %); type: toxicity, cell-based; details: read-out: Activity
[15] = tested on: MCF-10A; experiment: Induction of apoptosis in human MCF-10A cells assessed as early apoptotic cells incubated for 24 hrs by Annexin V-FITC/PI staining based flow cytometry (reference value: 1.66 %); type: toxicity, cell-based
[16] = tested on: MCF-10A; experiment: Induction of apoptosis in human MCF-10A cells assessed as late apoptotic cells incubated for 24 hrs by Annexin V-FITC/PI staining based flow cytometry (reference value: 2.16 %); type: toxicity, cell-based
[17] = tested on: MCF-10A; experiment: Induction of apoptosis in human MCF-10A cells assessed as necrotic cells incubated for 24 hrs by Annexin V-FITC/PI staining based flow cytometry (reference value: 0.17 %); type: toxicity, cell-based
[18] = tested on: MDA-MB-231; experiment: Antitumor activity against human MDA-MB-231 cells assessed as sphere-forming efficiency incubated for 6 hrs followed by medium replacement without compound measured after 6 days by microscopic analysis (reference value: 1.07 %); type: functional
[19] = Toxicity in BALB/c nude mouse xenografted with human MDA-MB-231 cells assessed as body weight change at 20 mg/kg, iv administered every two days for 21 days; type: organism-based; details: in vivo, 504 h, time 21 day
[20] = tested on: MDA-MB-231; experiment: Cytotoxicity against human MDA-MB-231 cells in presence of Cu2+ by MTT assay; type: functional, cell-based
[21] = tested on: A549; experiment: Cytotoxicity against human A549 cells in presence of Cu2+ by MTT assay; type: functional, cell-based
[22] = tested on: MDA-MB-231; experiment: Induction of apoptosis in human MDA-MB-231 cells assessed as viable cells at 0.8 uM incubated for 24 hrs by Annexin V-FITC/PI staining based flow cytometry (reference value: 86.2 %); type: functional; details: read-out: Activity
[23] = tested on: MDA-MB-231; experiment: Induction of apoptosis in human MDA-MB-231 cells assessed as early apoptotic cells at 0.8 uM incubated for 24 hrs by Annexin V-FITC/PI staining based flow cytometry (reference value: 7.39 %); type: functional
[24] = tested on: MDA-MB-231; experiment: Induction of apoptosis in human MDA-MB-231 cells assessed as late apoptotic cells at 0.8 uM incubated for 24 hrs by Annexin V-FITC/PI staining based flow cytometry (reference value: 5.81 %); type: functional
[25] = tested on: MDA-MB-231; experiment: Induction of apoptosis in human MDA-MB-231 cells assessed as necrotic cells at 0.8 uM incubated for 24 hrs by Annexin V-FITC/PI staining based flow cytometry (reference value: 0.59 %); type: functional
[26] = Induction of apoptosis in human MCF-10A cells assessed as viable cells at 0.8 uM incubated for 24 hrs by Annexin V-FITC/PI staining based flow cytometry (reference value: 92.5 %); type: toxicity, cell-based; details: read-out: Activity
[27] = tested on: MCF-10A; experiment: Induction of apoptosis in human MCF-10A cells assessed as early apoptotic cells at 0.8 uM incubated for 24 hrs by Annexin V-FITC/PI staining based flow cytometry (reference value: 2.96 %); type: toxicity, cell-based
[28] = tested on: MCF-10A; experiment: Induction of apoptosis in human MCF-10A cells assessed as late apoptotic cells at 0.8 uM incubated for 24 hrs by Annexin V-FITC/PI staining based flow cytometry (reference value: 3.13 %); type: toxicity, cell-based
[29] = tested on: MCF-10A; experiment: Induction of apoptosis in human MCF-10A cells assessed as necrotic cells at 0.8 uM incubated for 24 hrs by Annexin V-FITC/PI staining based flow cytometry (reference value: 1.38 %); type: toxicity, cell-based
[30] = tested on: MDA-MB-231; experiment: Induction of cell cycle arrest in human MDA-MB-231 cells assessed as accumulation at G0/G1 phase at 0.8 uM by PI staining based flow cytometry (reference value: 64.6 %); type: functional
[31] = tested on: MDA-MB-231; experiment: Anti-migration activity in human MDA-MB-231 cells at 0.8 uM incubated for 24 hrs by wound healing assay (reference value: 45.4 %); type: functional
[32] = tested on: MDA-MB-231; experiment: Anti-migration activity in human MDA-MB-231 cells at 0.8 uM incubated for 48 hrs by wound healing assay (reference value: 65.2 %); type: functional
[33] = tested on: MDA-MB-231; experiment: Inhibition of mitochondrial membrane potential in human MDA-MB-231 cells assessed as increase in green fluorescence at 0.8 uM incubated for 24 hrs by JC-1 dye based analysis; type: functional, cell-based
[34] = tested on: MCF-10A; experiment: Inhibition of mitochondrial membrane potential in human MCF-10A cells assessed as increase in green fluorescence at 0.8 uM incubated for 24 hrs by JC-1 dye based analysis; type: toxicity, cell-based
[35] = tested on: MDA-MB-231; experiment: Induction of apoptosis in human MDA-MB-231 cells assessed as viable cells incubated for 24 hrs by Annexin V-FITC/PI staining based flow cytometry (reference value: 92.06 %); type: functional
[36] = tested on: MDA-MB-231; experiment: Induction of apoptosis in human MDA-MB-231 cells assessed as early apoptotic cells incubated for 24 hrs by Annexin V-FITC/PI staining based flow cytometry (reference value: 1.94 %); type: functional
[37] = tested on: MDA-MB-231; experiment: Induction of apoptosis in human MDA-MB-231 cells assessed as late apoptotic cells incubated for 24 hrs by Annexin V-FITC/PI staining based flow cytometry (reference value: 2.4 %); type: functional
[38] = tested on: MDA-MB-231; experiment: Induction of apoptosis in human MDA-MB-231 cells assessed as necrotic cells incubated for 24 hrs by Annexin V-FITC/PI staining based flow cytometry (reference value: 3.6 %); type: functional
[39] = tested on: MDA-MB-231; experiment: Induction of cell cycle arrest in human MDA-MB-231 cells assessed as accumulation at G0/G1 phase in presence of UV by PI staining based flow cytometry (reference value: 43.25 %); type: functional
[40] = tested on: MDA-MB-231; experiment: Inhibition of mitochondrial membrane potential in human MDA-MB-231 cells incubated for 24 hrs in presence of UV by JC-1 dye based analysis (reference value: 5.51 %); type: functional

SMILES: OC[C@H]1O[C@@H](Oc2ccc(COc3cccc4cccnc34)cc2)[C@H](O)[C@@H](O)[C@@H]1O
- IC50 [1]: 1.2 µM
- IC50 at 48 h [2]: 4.13 µM
- selectivity ratio [3]: 2.3
- logP [4]: 3.81
- logD [5]: 4.14
- solubility [6]: 17.3 µg/mL (≈ 41.9 µM)
- solubility [7]: 15.6 µg/mL (≈ 37.8 µM)
- Activity [8]: Active
- Activity [9]: inactive
- Activity [10]: 24.5%
- Activity [11]: 52.3%
- Activity [12]: 23%
- Activity [13]: 0.11%
- viability at 24 h [14]: 76.6%
- Activity [15]: 9.17%
- Activity [16]: 13.3%
- Activity [17]: 0.88%
- Activity [18]: 0.21%
- Activity [19]: Non-toxic

SMILES: OC[C@H]1O[C@@H](Oc2cccc3cccnc23)[C@H](O)[C@@H](O)[C@@H]1O
- IC50 [20]: 5.56 µM
- IC50 [21]: 5.56 µM

SMILES: Oc1cccc2cccnc12 [OXYQUINOLINE]
- viability at 0.8 µM [22]: 3.03%
- Activity [23]: 80.5%
- Activity [24]: 15.6%
- Activity [25]: 0.88%
- viability at 24 h, 0.8 µM [26]: 8.98%
- Activity [27]: 63.2%
- Activity [28]: 24.4%
- Activity [29]: 3.39%
- Activity [30]: 78.2%
- Activity [31]: 3.8%
- Activity [32]: 5.6%
- inhibition [33]: Active
- Activity [34]: Toxic
- Activity [18]: 0.19%
- Activity [19]: Non-toxic
- Activity [35]: 44.1%
- Activity [36]: 33.76%
- Activity [37]: 20.48%
- Activity [38]: 2.66%
- Activity [39]: 61.23%
- inhibition (INH) [40]: 46.91%
